Results: PubChem BioAssay (NCI)
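Values below derive from 48-hour exposures of cells grown in 96-well plates, with endpoints linearly interpolated between the two concentrations bracketing the appropriate inhibition level. At the TGI there is no net growth.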

Tests used:
Assay in all cases: growth of human tumour cells (NCI), 48 h
UACC-62 melanoma = test system: UACC-62 melanoma
NCI-H522 lung = test system: NCI-H522 lung
K-562 leukemia = test system: K-562 leukemia
SR leukemia = test system: SR leukemia
SK-MEL-28 melanoma = test system: SK-MEL-28 melanoma
NCI-H23 lung = test system: NCI-H23 lung
SF-268 CNS = test system: SF-268 CNS
CCRF-CEM leukemia = test system: CCRF-CEM leukemia
MDA-MB-231 breast = test system: MDA-MB-231 breast
CAKI-1 renal = test system: CAKI-1 renal
HCT-116 colon = test system: HCT-116 colon
M14 melanoma = test system: M14 melanoma
PC-3 prostate = test system: PC-3 prostate
SNB-19 CNS = test system: SNB-19 CNS
HL-60(TB) leukemia = test system: HL-60(TB) leukemia
MCF7 breast = test system: MCF7 breast
SF-539 CNS = test system: SF-539 CNS
EKVX NSCLC = test system: EKVX NSCLC
RPMI-8226 leukemia = test system: RPMI-8226 leukemia
MOLT-4 leukemia = test system: MOLT-4 leukemia

Structure (SMILES)	TGI (UACC-62 melanoma) [µM]	TGI (NCI-H522 lung) [µM]	TGI (K-562 leukemia) [µM]	TGI (SR leukemia) [µM]	TGI (SK-MEL-28 melanoma) [µM]	TGI (NCI-H23 lung) [µM]	TGI (SF-268 CNS) [µM]	TGI (CCRF-CEM leukemia) [µM]	TGI (MDA-MB-231 breast) [µM]	TGI (CAKI-1 renal) [µM]	TGI (HCT-116 colon) [µM]	TGI (M14 melanoma) [µM]	TGI (PC-3 prostate) [µM]	TGI (SNB-19 CNS) [µM]	TGI (HL-60(TB) leukemia) [µM]	TGI (MCF7 breast) [µM]	TGI (SF-539 CNS) [µM]	TGI (EKVX NSCLC) [µM]	TGI (RPMI-8226 leukemia) [µM]	TGI (MOLT-4 leukemia) [µM]
O=C1C(/C=C/c2ccc(Cl)cc2)=NNC2N1N=C1NC(=O)C3(NN12)c1ccccc1-c1ccccc13 (centres undefined)	> 100	> 100	> 100	60.3	> 100	> 100	> 100	> 100	> 100	> 100	> 100	> 100	> 100	> 100	> 100	> 100	> 100	> 100	–	–
Cn1c(=O)cc(NCc2ccc(Cl)cc2)[nH]c1=O	> 100	> 100	> 100	–	> 100	> 100	69.1	–	> 100	> 100	> 100	> 100	> 100	> 100	–	> 100	> 100	> 100	> 100	–
COc1ccc(/C=C2\C[C@H]3[C@@H]4CCC5=C[C@@H](N6CCCC6)CC[C@]5(C)[C@H]4CC[C@]3(C)[C@H]2O)cc1	3.28	7.36	11.8	6.32	3.66	16.3	11.6	–	4.6	14.6	5.45	2.9	8.17	16.1	4.21	5.84	5.71	17	> 29.2	> 45.4
COc1ccc2nc3cccc([N+](=O)[O-])c3c(NCCO)c2c1	0.0481	0.043	0.0181	–	0.0626	0.0624	0.111	2.68	0.041	0.0706	0.00545	0.0228	0.0982	0.875	0.0943	0.296	0.052	0.0648	0.019	–
O=c1oc2ccccc2c(O)c1C(c1ccco1)c1c(O)c2ccccc2oc1=O	70	41.8	> 100	–	52.1	> 100	79.8	73.8	36	42.4	> 100	–	> 100	> 100	> 100	–	–	> 100	66.1	62.1
CSc1nc(-c2cc3c(c(SC)n2)CCCCC3)cc2c1CCCCC2	> 100	90.2	> 100	–	> 100	> 100	> 100	> 100	> 100	> 100	> 100	> 100	> 100	> 100	> 100	–	> 100	> 100	> 100	> 100
O=C/C(=C(/Br)I)c1ccccc1	44.4	3.41	3.85	2.3	2.6	12.7	7.97	0.798	7.44	4.15	4.52	4.01	18.2	31.4	1.13	2.57	6.11	28.6	–	4.28
